# According to PubChem BioAssay AID2060602 (Molecular Pharmacology Branch, DTP, NCI, 2025):
# Several values for one entry are separate records, joined by “and”; a condition that tells them apart may be missing. Equal values may be shown once.
# Test system: 648629-189-R-J1-PDC complex spheroids viability
# Assay: Anticancer human tumor 648629-189-R-J1-PDC patient-derived bladder carcinoma cell line growth inhibition [CLK]
# Conditions: for viability, T/C: stronger effect = lower value; for IC50: curve of compound
# Excerpt: A high-throughput screen of multi-cell type tumor spheroids was designed to identify active combinations of […] and targeted small molecules. Complex spheroids include a stromal component modeled by human endothelial cells (HUVEC) and fibroblasts modeled by human mesenchymal stem cells (MSCs). The concentration ranges selected for each drug and investigational agent were based upon clinically achievable concentrations if the clinical Cmax of the agent was known.
# Compounds. The drugs and investigational agents: cirtuvivint (SM08502; NSC835563), CC-671 (NSC850746), vemurafenib (NSC761431), tapotoclax (NSC804041), sotorasib (NSC818433), adagrasib (NSC831453), MRTX-1133 (NSC836407), BAY2416964 (NSC825713), copanlisib (NSC816437), inavolisib (NSC800729), abemaciclib (NSC768073), osimertinib (NSC779217), entinostat (NSC756642), eltanexor (KPT-8602, NSC794443), venetoclax (NSC766270), ceralasertib (NSC777638), bortezomib (NSC756655), olaparib (NSC753686), talazoparib (NSC767125), alisertib (NSC759677), peposertib (NSC802822), gemcitabine (NSC613327), 5-fluorouracil (NSC19893), SN-38 (NSC673596), oxaliplatin (NSC266046), paclitaxel (NSC125973), and doxorubicin (NSC123127), were obtained from the National Cancer Institute (NCI) Developmental Therapeutics Program Chemical Repository. The FDA-approved anticancer drug set is available from the Developmental Therapeutics Program at https://dtp.cancer.gov/organization/dscb/obtaining/available plates.htm. […] The stock solutions were prepared in dimethyl sulfoxide (DMSO, Sigma-Aldrich, St. Louis, MO, cat. D2650), except for the platinum complexes which were prepared in saline (Quality Biological, Gaithersburg, MD, cat. 114-055-101), at 800-fold the tested concentration and stored at -70 degrees C prior to their use. All drugs and investigational agents were tested over a range starting from a high concentration at or near the clinical Cmax and decreasing in half-log increments. If the clinical Cmax for an agent had not been determined, the highest concentration tested was 10 microM.
# Cell Culture. All cells were maintained in an incubator at 37 degrees C and 5% CO2 with 95% humidity. The PDC lines were cultured according to standard operating procedures established by the NCI PDMR. Briefly, all PDCs were thawed and cultured in Matrigel-coated flasks prepared with a working solution of 1X Ham's F-12 nutrient mix, without supplementation (Invitrogen, Waltham, MA, cat. 11765054), 100 U/mL penicillin-streptomycin (Invitrogen, cat. 15140122), and 2.5% Matrigel (Corning Inc., Corning, NY, cat. 354248) for the first three passages. The 947758-054-R-J2-PDC line was cultured in 6B/Colon 1A media, which includes advanced DMEM/F-12 (Thermo Fisher Scientific, cat. 12634028), 10 mM HEPES (Thermo Fisher Scientific, cat. 15630080), 1X GlutaMAX supplement (Thermo Fisher Scientific, cat. 35050061), 0.1 mg/mL primocin (InvivoGen, cat. ant-pm-2), 10% defined fetal bovine serum, heat inactivated (HyClone Laboratories Inc., cat. SH30070.03HI), 1.25 mM N-Acetyl-L-cysteine (Sigma-Aldrich, cat. A9165), 10 mM nicotinamide (Sigma-Aldrich, cat. N0636), 1X B-27 supplement (Thermo Fisher Scientific, cat. 17504044), 1X N-2 supplement (Thermo Fisher Scientific, cat. 17502048), and 10 microM Y-27632 dihydrochloride (Tocris Bioscience, cat. 1254). The 876862-298-R-J1-PDC was cultured in 6E media, which includes all 6B/Colon 1A media components plus 50% L-WRN conditioned media (ATCC, cat. CRL-3276), 50 ng/mL recombinant human EGF recombinant protein (hEGF; Thermo Fisher Scientific, cat. PHG0311), 10 ng/mL recombinant human fibroblast growth factor 10 (hGFG-10; PeproTech, cat. 100-26), 1 ng/mL recombinant human fibroblast growth factor 2 (hFGF-2; PeproTech, cat. 100-18B), and 1 µM prostaglandin E2 (PGE2; Tocris, cat. 2296). The 227483-062-R1-J1-PDC line was cultured in Panc media, containing all 6E components except hFGF-2, with the addition of 500 nM SB-431542 (Selleckchem, cat. S1067) and 10 nM gastrin (Tocris, cat. 3006). […]
# 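Wherever viability, T/C is given: drug exposure lasted seven days before viability readout; 100% = DMSO vehicle control wells.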
IC50,Structure (SMILES),"viability, T/C (compound 0.0316 µM)","viability, T/C (compound 0.1 µM)","viability, T/C (compound 0.316 µM)","viability, T/C (compound 1 µM)","viability, T/C (compound 3.16 µM)","viability, T/C (compound 10 µM)","viability, T/C (compound 0.000949 µM)","viability, T/C (compound 0.003 µM)","viability, T/C (compound 0.00949 µM)","viability, T/C (compound 0.03 µM)","viability, T/C (compound 0.0949 µM)","viability, T/C (compound 0.3 µM)","viability, T/C (compound 0.00316 µM)","viability, T/C (compound 0.01 µM)"
> 10 µM,C#Cc1c(F)ccc2cc(O)cc(-c3ncc4c(N5CC6CCC(C5)N6)nc(OCC56CCCN5CC(F)C6)nc4c3F)c12 (configuration not stated),97.9% and 109%,94.2% and 99.3%,91.3% and 98%,91% and 107%,94.4% and 111%,88.9% and 101%,,,,,,,,
5.55 µM and 5.42 µM,C=C(F)C(=O)N1CCN(c2nc(OCC3CCCN3C)nc3c2CCN(c2cccc4cccc(Cl)c24)C3)CC1CC#N (configuration not stated),103% and 97.9%,97.9% and 98.3%,101% and 99%,87.8% and 95.9%,98% and 93.7%,0.23% and 0.2%,,,,,,,,
> 10 µM,C=CC(=O)N1CCN(c2nc(=O)n(-c3c(C)ccnc3C(C)C)c3nc(-c4c(O)cccc4F)c(F)cc23)C(C)C1 (configuration not stated),84.4% and 97.4%,95.1% and 95.9%,99.2% and 102%,106% and 98.1%,104% and 96.5%,89.5% and 94.4%,,,,,,,,
> 0.3 µM,C=CC(=O)Nc1cc(Nc2nccc(-c3cn(C)c4ccccc34)n2)c(OC)cc1N(C)CCN(C)C,,,,,,,99.8% and 108%,92.8% and 88.8%,103% and 107%,110% and 92.8%,104% and 111%,83.7% and 87.5%,,
0.00435 µM and 0.00255 µM,CC(C)CC(NC(=O)C(Cc1ccccc1)NC(=O)c1cnccn1)B(O)O (configuration not stated),,,,,,,93.5% and 99.9%,73.2% and 41.8%,1.45% and 1.53%,0.27% and 1.43%,0.2% and 0.17%,1.64% and 0.18%,,
> 10 µM,CC(CO)NC(=O)c1cc(-c2ccc(Cl)cc2)nn(-c2cnn(C)c2)c1=O (configuration not stated),103% and 108%,96.4% and 90.6%,95.2% and 95.5%,96.3% and 98.4%,88.3% and 117%,86.7% and 92.5%,,,,,,,,
4.86 µM and 6.82 µM,CC(Nc1ccc2c(c1)OCCn1cc(N3C(=O)OCC3C(F)F)nc1-2)C(N)=O (configuration not stated),106% and 92.8%,99.8% and 111%,89% and 83.4%,82.8% and 76.1%,54.4% and 56.5%,38.2% and 46.5%,,,,,,,,
> 10 µM,CC1(C)CCC(CN2CCN(c3ccc(C(=O)NS(=O)(=O)c4ccc(NCC5CCOCC5)c([N+](=O)[O-])c4)c(Oc4cnc5[nH]ccc5c4)c3)CC2)=C(c2ccc(Cl)cc2)C1,102% and 96.3%,94.1% and 86%,99.4% and 93.7%,88.7% and 93.4%,84.9% and 93.4%,62% and 110%,,,,,,,,
2.93 µM and 2.84 µM,CC1COCCN1c1cc(C2(S(C)(=N)=O)CC2)nc(-c2ccnc3[nH]ccc23)n1 (configuration not stated),103% and 105%,96.5% and 93.5%,108% and 97%,87.4% and 95%,47.8% and 45.4%,23.8% and 18.8%,,,,,,,,
7.51 µM and 6.09 µM,CCCS(=O)(=O)Nc1ccc(F)c(C(=O)c2c[nH]c3ncc(-c4ccc(Cl)cc4)cc23)c1F,99.7% and 107%,97% and 82.6%,98.6% and 98.2%,104% and 93.3%,108% and 90%,32.9% and 19.8%,,,,,,,,
> 1 µM,CCN1CCN(Cc2ccc(Nc3ncc(F)c(-c4cc(F)c5nc(C)n(C(C)C)c5c4)n3)nc2)CC1,102%,101% and 93.4%,122% and 121%,124% and 117%,,,,,,,,,104% and 106%,99.1% and 94.2%
